# Details: a range is the spread between reports
row,SMILES,melting point [°C]
1,OCCOCCO,-10.4 to -10
2,C/C=C\CC,-151
3,Nc1ccc([N+](=O)[O-])cc1[N+](=O)[O-],176 to 180
4,CCOS(=O)(=O)c1ccc(C)cc1,32 to 34.5
5,OCc1ccc(Cl)cc1,70 to 75
6,CCCCCCI,-75 to -74.2
7,NC(=O)c1cccnc1,130
8,CCCCCCCCCCCCBr,-10 to -9.5
9,CS,-123 to -121
10,Oc1ccc2c(c1)[nH]c1ccccc12,272
11,Brc1cccc2ccccc12,-1.8 to -1
12,O=C(O)Cc1cccc(F)c1,43 to 46
13,FC(F)(F)F,-184
14,COc1cc(OC)c(C(=O)O)cc1OC,144 to 145
15,CCCCCCCC#N,-46 to -45
16,N#CI,146 to 147
17,C=CCCCCCCCCCC,-37 to -35
18,CC(C)(C)c1cc(C=O)cc(C(C)(C)C)c1O,186 to 188
19,CCC(c1ccccc1)c1ccccc1,13.3 to 14
20,O=[N+]([O-])c1cc(Cl)ccc1Cl,55 to 56
21,Nc1ccc(O)c([N+](=O)[O-])c1,126 to 129
22,OCCN(CCO)CCO,19.5 to 20.5
23,C[N+](=O)[O-],-29 to -28.5

row,SMILES,melting point [°C]
1,COC(=O)NN,72 to 73
2,CCCCCCCCC#N,-34.2 to -34
3,COC(=O)c1ccc(OC)c(OC)c1,59 to 60.8
4,O=C(c1ccc(Br)cc1)c1ccc(Br)cc1,174 to 177
5,CCCCC(CC)COP(=O)(OCC(CC)CCCC)OCC(CC)CCCC (stereo not given),-74 to -70
6,O=Cc1ccco1,-38.1 to -36
7,CCCCCCCCC(C)C,-49 to -48.9
8,CCOP(=S)(OCC)Oc1nc(Cl)c(Cl)cc1Cl,41.5 to 42.5
9,O=C(O)Cc1cccc(O)c1,130 to 132
10,OCCCl,-67.5 to -63
11,COC(=O)c1ccccc1N,24 to 24.5
12,CCOC(=O)c1cc(C)n[nH]1,82 to 87
13,CC=C(C)C(C)C,-124
14,O=C(O)C(F)(F)F,-15.2 to -15
15,COc1cc(Cl)ccc1N,51 to 52
16,CC(=O)Nc1ccccc1,114 to 115
17,CSC(C)C,-102
18,CN(C)C=O,-61 to -60.4
19,COc1ccc(C=O)c2ccccc12,34 to 34.8
20,N#CCCc1ccccc1,-2 to -1
21,Nc1ccc(/C=C/c2ccc([N+](=O)[O-])cc2)c([N+](=O)[O-])c1,198 to 202
22,N#Cc1c2ccccc2cc2ccccc12,175 to 177
23,Brc1ccc(Br)c(Br)c1,42 to 44.5

row,SMILES,melting point [°C]
1,CCCCCCCCCCCBr,-10 to -9
2,N#Cc1nn(-c2c(Cl)cc(C(F)(F)F)cc2Cl)c(N)c1S(=O)C(F)(F)F (stereo not given),199 to 200
3,CCOc1ccc(C#N)cc1,61.5 to 62
4,O=C(Cl)c1ccc(F)cc1,9 to 10
5,CNc1ccc(Cl)cc1C(=O)c1ccccc1,94 to 96
6,Nc1ccc(Cl)cc1Cl,61 to 63.5
7,CCCC=O,-99 to -96
8,Cc1cccc(C(C)(C)C)c1,-41.4 to -41
9,C#C,-80.8 to -80.7
10,N#CCc1ccc(N)cc1,44 to 46
11,ICI,5 to 6.1
12,OCc1ccc2c(c1)OCO2,53 to 58
13,O=C(O)c1cc(Cl)ccc1O,171 to 174
14,COc1ccc(C(=O)O)cc1OC,180 to 181
15,O=C(O)c1cccc(Oc2ccccc2)c1,148 to 150
16,CC(=O)N1CCOCC1,10 to 14.5
17,C=Cc1cccc([N+](=O)[O-])c1,-10 to -5
18,Cc1ccc[nH]c1=O,138 to 142
19,CCC(C)C(C)(C)C (stereo not given),-112
20,c1ccc(C(c2ccccc2)c2ccccc2)cc1,93 to 94
21,OCCCO,-27 to -26

# Continued, values first:
row,melting point [°C],SMILES
1,229 to 233,O=C(O)c1ccc2c(c1)OCO2
2,187 to 189,CC1(C(=O)O)CCC(C(=O)O)C1(C)C (stereo not given)
3,26 to 29,CCOc1ccccc1O
4,40 to 41,COc1cc(Cl)cc(Cl)c1
5,40 to 41,CCN(CC)c1ccc(C=O)cc1
6,-51.4 to -51,c1ccc2c(c1)CCC2
7,-138 to -137,C=C(C)Cl
8,-83.2 to -81,C=CCCCCCCC
9,74 to 75,CN(C)c1ccc(C=O)cc1
10,-81 to -80,CCC=O
11,192 to 194,CC(=O)Oc1ccc(C(=O)O)cc1
12,-144,CCC1(C)CCCC1
13,146 to 149,O=S(=O)(Cc1ccccc1)c1ccccc1
14,-23 to -18,CCCCCCCN
15,131 to 132,O=C(C=CC=Cc1ccc2c(c1)OCO2)N1CCCCC1
16,153 to 154,O=C(O)CC(O)(CC(=O)O)C(=O)O
17,76 to 81,CCCCCCCCCCCCCCCCCCCCCC(=O)O
18,34 to 38,CCN(CC)c1ccc(Br)cc1
19,-93.5 to -93,CC(C)CCOC=O
20,33 to 36,O=[N+]([O-])c1ccc(F)cc1O

row,melting point [°C],SMILES
1,224 to 227,N#Cc1ccc(C(N)=O)cc1
2,189 to 194,CC(=O)c1c[nH]c2ccccc12
3,-26 to -25,CC(C)(C)Cl
4,137 to 140,Cc1ncc([N+](=O)[O-])n1C
5,87 to 89,CC(=O)Nc1ccccc1Cl
6,124 to 126,O=C(O)c1ccccc1F
7,60 to 61,OCC1CCCNC1 (stereo not given)
8,78.5 to 81,COc1ccccc1OCC(O)CO (stereo not given)
9,89 to 90.5,O=C1C=CC(=O)N1c1ccccc1
10,56.5 to 58,COc1cc(N)ccc1C
11,237 to 238,CC(C)CCCC(C)C1CCC2C3CC(O)C4(O)CC(O)CCC4(C)C3CCC12C (stereo not given)
12,114 to 115,CC(C)(C)C1=CC(=O)C(=O)C(C(C)(C)C)=C1
13,172 to 177,Cc1ccc2c(c1)C(=O)c1ccccc1C2=O
14,-74.4 to -74,CC(C)c1ccccc1Cl
15,72 to 74,OCCCCCCCCCCO
16,1 to 2,Cc1ccc(C(C)C)cc1O
17,246 to 251,c1ccc(-c2c3ccccc3c(-c3ccccc3)c3ccccc23)cc1
18,162 to 164,O=C(O)c1cccc(F)c1F
19,162 to 164,Oc1cc2ccccc2cc1O
20,258 to 262,OCC(CO)(CO)CO

row,melting point [°C],SMILES
1,75 to 76.5,Cc1n[nH]cc1Br
2,54 to 55,CN(C)c1ccc(Br)cc1
3,4.5 to 5,Brc1cscc1Br
4,-121,CCCCC(C)(C)C
5,59 to 62,c1ccc(-n2cccc2)cc1
6,16 to 18,C=CCCCCCCCCCCCCCCCC
7,42 to 44,CC(C)[C@@H]1CC[C@@H](C)C[C@H]1O
8,115 to 117,O=Cc1ccc(C=O)cc1
9,8.5 to 11.1,NCCN
10,153 to 156,CC(C)(c1ccc(O)cc1)c1ccc(O)cc1
11,46 to 48.5,O=Cc1ccc(Cl)cc1
12,108 to 109,N#Cc1ccccc1[N+](=O)[O-]
13,-53 to -52.5,C=Cc1ccccc1Br
14,47 to 48,c1ccc2ncncc2c1
15,342 to 347,O=C(O)c1cccc(C(=O)O)c1
16,120 to 121,COc1cc(OC)c(C=O)c(OC)c1
17,39 to 39.5,CCCCCCCCCCCCCC(C)=O
18,88.5 to 89,CCOc1ccc(CC(=O)O)cc1

# From a melting point compilation (Tetko et al.)
